Source: patent publication US8343961B2, “Substituted heterocyclic compounds” (ArQule, Inc., priority 2009, dated 2013)

Target: T1, Tec kinase (Homo sapiens, UniProt P42680)
T1 sequence (P42680 1-631): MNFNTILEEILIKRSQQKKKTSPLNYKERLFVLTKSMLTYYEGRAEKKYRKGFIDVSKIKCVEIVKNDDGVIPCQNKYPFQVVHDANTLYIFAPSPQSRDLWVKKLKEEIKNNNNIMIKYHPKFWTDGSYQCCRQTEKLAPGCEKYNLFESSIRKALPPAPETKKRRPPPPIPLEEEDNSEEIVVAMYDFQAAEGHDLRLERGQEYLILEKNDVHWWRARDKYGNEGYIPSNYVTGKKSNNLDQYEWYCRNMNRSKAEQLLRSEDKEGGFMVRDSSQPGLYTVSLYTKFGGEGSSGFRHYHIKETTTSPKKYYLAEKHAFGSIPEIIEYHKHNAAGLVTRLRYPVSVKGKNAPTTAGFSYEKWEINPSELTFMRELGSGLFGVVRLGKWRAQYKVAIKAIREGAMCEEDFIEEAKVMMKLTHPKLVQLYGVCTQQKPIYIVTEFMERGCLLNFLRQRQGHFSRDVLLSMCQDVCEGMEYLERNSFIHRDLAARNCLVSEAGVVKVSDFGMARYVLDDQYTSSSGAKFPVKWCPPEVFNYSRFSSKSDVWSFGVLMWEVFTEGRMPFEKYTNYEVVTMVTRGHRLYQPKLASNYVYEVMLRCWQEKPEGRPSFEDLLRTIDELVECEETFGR
Test: Tec Kinase Activity Assay
Format: biochemical
Conditions: read-out: Tec % INH, at 30 uM
Description: The disclosed compounds were assayed for their ability to inhibit the activity of Tec kinase. Nunc Maxisorb plates were coated with streptavidin by overnight incubation with 100 μL per well of 1 μg/mL Streptavidin in DPBS. Prior to the start of the experiment, the plates were washed with TBST (3×200 μL) and blocked for at least 1 hour by adding 150 μL of 5% BSA/TBST. The plates were washed with TBST (3×200 μL/well) and left dry immediately before the capture step.
The test articles and controls (Staurosporine and Sutent) were prepared using the following assay buffer @ 3× desired final concentration (50 mM Tris-HCl, 0.02 mg/mL BSA, 10 mM MgCl2, 0.1 mM Na3VO4, 1 mM EGTA, 75 μM ATP0.01% NP-40, 2 mM DTT in 10% glycerol/water). In a reaction plate were added rapidly 20 μL test article (or control) and 20 μL TEC 0.25 ng/4. The plate was incubated for 30 minutes. To the reaction plate was added 20 μL of Pyk-2.5 ng/μL. The plate was incubated at room temperature for two hours. From the reaction plate, 50 μL was transferred to the streptavidin coated plate. The capture plate was incubated at room temperature for 30 minutes then washed 6× with TBST. To the capture plate was added 100 μL/well of Cell Signaling anti-phospho tyrosine at a dilution of 1:3000 in 2% BSA/TBST. The plate was incubated for one hour at room temperature then washed 6× with TBST. To the capture plate was added 100 μL/well of Alkaline Phosphatase Tagged Goat anti Mouse Antibody at a dilution of 1:4000 in 2% BSA/TBST. The plate was incubated for one hour at room temperature then washed 6× with TBST. The fluorescent readout was initiated by the addition of 100 μL/well of Attophos reagent (6 mg/10 mL). The reading was done on the Perkin Elmer Envision system.

First: Nc1nc(N2CCN(CCCc3cccc(F)c3)c3ccccc3C2)c2nc[nH]c2n1 [Compound 39, 6-{1-[3-(3-fluorophenyl)propyl]-1,2,3,5-tetrahydro-4H-1,4-benzodiazepin-4-yl}-9H-purin-2-amine]
Second: Nc1nc(N2CCN(CCCc3cccc(Cl)c3)c3ccccc3C2)c2nc[nH]c2n1 [Compound 7, 6-{1-[3-(3-chlorophenyl)propyl]-1,2,3,5-tetrahydro-4H-1,4-benzodiazepin-4-yl}-9H-purin-2-amine]
The inhibition at 30 µM of the first is lower: < 50% for the first, 50 to 79% for the second.

Compared with `Nc1nc(N2CCN(CCCc3cccc(Cl)c3)c3ccccc3C2)c2cn[nH]c2n1` [Compound 8, 4-{1-[3-(3-chlorophenyl)propyl]-1,2,3,5-tetrahydro-4H-1,4-benzodiazepin-4-yl}-1H-pyrazolo[3,4-d]pyrimidin-6-amine], `Cc1cccc(CN2CCN(c3nc(N)nc4[nH]ncc34)Cc3ccccc32)c1` [Compound 34, 4-[1-(3-methylbenzyl)-1,2,3,5-tetrahydro-4H-1,4-benzodiazepin-4-yl]-1H-pyrazolo[3,4-d]pyrimidin-6-amine] is lower in inhibition at 30 µM: > 79% for the first, 50 to 79% for the second.

First: Nc1nc(N2CCN(Cc3ccc(Cl)cc3Cl)c3ccccc3C2)c2cn[nH]c2n1 [Compound 32, 4-[1-(2,4-dichlorobenzyl)-1,2,3,5-tetrahydro-4H-1,4-benzodiazepin-4-yl]-1H-pyrazolo[3,4-d]pyrimidin-6-amine]
Second: Nc1nc(N2CCN(Cc3ccc(Cl)c(Cl)c3)c3ccccc3C2)c2cn[nH]c2n1 [Compound 43, 4-[1-(3,4-dichlorobenzyl)-1,2,3,5-tetrahydro-4H-1,4-benzodiazepin-4-yl]-1H-pyrazolo[3,4-d]pyrimidin-6-amine]
The inhibition at 30 µM of the first is lower: 50 to 79% for the first, > 79% for the second.

`Nc1nc(N2CCN(Cc3ccc(F)c(F)c3)c3ccccc3C2)c2nc[nH]c2n1` [Compound 46, 6-[1-(3,4-difluorobenzyl)-1,2,3,5-tetrahydro-4H-1,4-benzodiazepin-4-yl]-9H-purin-2-amine] and `Nc1nc(N2CCN(Cc3ccc(Cl)cc3Cl)c3ccccc3C2)c2nc[nH]c2n1` [Compound 31, 6-[1-(2,4-dichlorobenzyl)-1,2,3,5-tetrahydro-4H-1,4-benzodiazepin-4-yl]-9H-purin-2-amine] cannot be ordered by inhibition at 30 µM: < 50% for the first, < 50% for the second.

First: COc1cc2c(cc1OC)C(c1cccc(Cl)c1F)N(c1nc(N)nc3[nH]cnc13)CC2 (centres unmarked) [Compound 49, 6-[1-(3-chloro-2-fluorophenyl)-6,7-dimethoxy-3,4-dihydroisoquinolin-2(1H)-yl]-9H-purin-2-amine]
Second: COc1ccc(CN2CCN(c3nc(N)nc4[nH]cnc34)Cc3ccccc32)cc1OC [Compound 27, 6-[1-(3,4-dimethoxybenzyl)-1,2,3,5-tetrahydro-4H-1,4-benzodiazepin-4-yl]-9H-purin-2-amine]
The inhibition at 30 µM of the first is lower: < 50% for the first, 50 to 79% for the second.

First: Nc1nc(N2CCN(Cc3ccc(Cl)cc3)c3ccccc3C2)c2cn[nH]c2n1 [Compound 23, 4-[1-(4-chlorobenzyl)-1,2,3,5-tetrahydro-4H-1,4-benzodiazepin-4-yl]-1H-pyrazolo[3,4-d]pyrimidin-6-amine]
Second: Nc1nc(N2CCN(Cc3ccc(F)cc3)c3ccccc3C2)c2cn[nH]c2n1 [Compound 16, 4-[1-(4-fluorobenzyl)-1,2,3,5-tetrahydro-4H-1,4-benzodiazepin-4-yl]-1H-pyrazolo[3,4-d]pyrimidin-6-amine]
The inhibition at 30 µM of the first is lower: < 50% for the first, 50 to 79% for the second.

First: COc1ccc(CN2CCN(c3nc(N)nc4[nH]ncc34)Cc3ccccc32)cc1OC [Compound 28, 4-[1-(3,4-dimethoxybenzyl)-1,2,3,5-tetrahydro-4H-1,4-benzodiazepin-4-yl]-1H-pyrazolo[3,4-d]pyrimidin-6-amine]
Second: COc1ccccc1CN1CCN(c2nc(N)nc3[nH]ncc23)Cc2ccccc21 [Compound 10, 4-[1-(2-methoxybenzyl)-1,2,3,5-tetrahydro-4H-1,4-benzodiazepin-4-yl]-1H-pyrazolo[3,4-d]pyrimidin-6-amine]
The inhibition at 30 µM of the first is lower: 50 to 79% for the first, > 79% for the second.

`COc1ccc(OC)c(CN2CCN(c3nc(N)nc4[nH]cnc34)Cc3ccccc32)c1` [Compound 35, 6-[1-(2,5-dimethoxybenzyl)-1,2,3,5-tetrahydro-4H-1,4-benzodiazepin-4-yl]-9H-purin-2-amine] and `COc1cccc(CN2CCN(c3nc(N)nc4[nH]cnc34)Cc3ccccc32)c1` [Compound 2, 6-[1-(3-methoxybenzyl)-1,2,3,5-tetrahydro-4H-1,4-benzodiazepin-4-yl]-9H-purin-2-amine] fall in the same range of inhibition at 30 µM: 50 to 79% for the first, 50 to 79% for the second.

First: Nc1nc(N2CCN(Cc3ccccc3Cl)c3ccccc3C2)c2nc[nH]c2n1 [Compound 13, 6-[1-(2-chlorobenzyl)-1,2,3,5-tetrahydro-4H-1,4-benzodiazepin-4-yl]-9H-purin-2-amine]
Second: Cc1ccccc1CN1CCN(c2nc(N)nc3[nH]cnc23)Cc2ccccc21 [Compound 11, 6-[1-(2-methylbenzyl)-1,2,3,5-tetrahydro-4H-1,4-benzodiazepin-4-yl]-9H-purin-2-amine]
The inhibition at 30 µM of the first is lower: < 50% for the first, 50 to 79% for the second.

`Cc1ccccc1CN1CCN(c2nc(N)nc3[nH]ncc23)Cc2ccccc21` [Compound 12, 4-[1-(2-methylbenzyl)-1,2,3,5-tetrahydro-4H-1,4-benzodiazepin-4-yl]-1H-pyrazolo[3,4-d]pyrimidin-6-amine] and `Nc1nc(N2CCN(Cc3ccccc3Cl)c3ccccc3C2)c2cn[nH]c2n1` [Compound 14, 4-[1-(2-chlorobenzyl)-1,2,3,5-tetrahydro-4H-1,4-benzodiazepin-4-yl]-1H-pyrazolo[3,4-d]pyrimidin-6-amine] fall in the same range of inhibition at 30 µM: 50 to 79% for the first, 50 to 79% for the second.

First: Nc1nc(N2CCN(Cc3cccc4ccccc34)c3ccccc3C2)c2nc[nH]c2n1 [Compound 17, 6-[1-(1-naphthylmethyl)-1,2,3,5-tetrahydro-4H-1,4-benzodiazepin-4-yl]-9H-purin-2-amine]
Second: Nc1nc(N2CCN(CCCc3ccccc3)c3ccccc3C2)c2nc[nH]c2n1 [Compound 40, 6-[1-(3-phenylpropyl)-1,2,3,5-tetrahydro-4H-1,4-benzodiazepin-4-yl]-9H-purin-2-amine]
The inhibition at 30 µM of the first is lower: 50 to 79% for the first, > 79% for the second.

First: CC(C)c1ccc(CN2CCN(c3nc(N)nc4[nH]cnc34)Cc3ccccc32)cc1 [Compound 3, 6-[1-(4-isopropylbenzyl)-1,2,3,5-tetrahydro-4H-1,4-benzodiazepin-4-yl]-9H-purin-2-amine]
Second: CC(C)c1ccc(CN2CCN(c3nc(N)nc4[nH]ncc34)Cc3ccccc32)cc1 [Compound 4, 4-[1-(4-isopropylbenzyl)-1,2,3,5-tetrahydro-4H-1,4-benzodiazepin-4-yl]-1H-pyrazolo[3,4-d]pyrimidin-6-amine]
The inhibition at 30 µM of the first is lower: < 50% for the first, 50 to 79% for the second.

`Nc1nc(N2CCN(Cc3cccc(F)c3)c3ccccc3C2)c2cn[nH]c2n1` [Compound 6, 4-[1-(3-fluorobenzyl)-1,2,3,5-tetrahydro-4H-1,4-benzodiazepin-4-yl]-1H-pyrazolo[3,4-d]pyrimidin-6-amine] and `Nc1nc(N2CCN(Cc3ccc(F)cc3F)c3ccccc3C2)c2cn[nH]c2n1` [Compound 38, 4-[1-(2,4-difluorobenzyl)-1,2,3,5-tetrahydro-4H-1,4-benzodiazepin-4-yl]-1H-pyrazolo[3,4-d]pyrimidin-6-amine] fall in the same range of inhibition at 30 µM: 50 to 79% for the first, 50 to 79% for the second.

First: Nc1nc(N2CCN(Cc3cccc(C(F)(F)F)c3)c3ccccc3C2)c2nc[nH]c2n1 [Compound 20, 6-{1-[3-(trifluoromethyl)benzyl]-1,2,3,5-tetrahydro-4H-1,4-benzodiazepin-4-yl}-9H-purin-2-amine]
Second: Cc1ccc(CCCN2CCN(c3nc(N)nc4[nH]cnc34)Cc3ccccc32)cc1 [Compound 44, 6-{1-[3-(4-methylphenyl)propyl]-1,2,3,5-tetrahydro-4H-1,4-benzodiazepin-4-yl}-9H-purin-2-amine]
The inhibition at 30 µM of the first is higher: 50 to 79% for the first, < 50% for the second.

`CC(C)(C)c1ccc(CN2CCN(c3nc(N)nc4[nH]ncc34)Cc3ccccc32)cc1` [Compound 30, 4-[1-(4-tert-butylbenzyl)-1,2,3,5-tetrahydro-4H-1,4-benzodiazepin-4-yl]-1H-pyrazolo[3,4-d]pyrimidin-6-amine] showed an inhibition at 30 µM of 50 to 79%.
